Data on six compounds can be found in patent publication US5189212A, “Triarylethylene carboxylic acids with estrogenic activity” (University of Georgia Research Foundation, Inc., priority 1990, dated 1993).

For data set [1], the system named is UDP glucuronyl transferase. Conditions: rat, microsomes, 0.5 h.
Data set [2] relates to UDP glucuronyl transferase. In words: Rat liver microsomal glucuronidation. Conditions: for Vmax: detergent-activated rat liver microsomes, 37° C., 30 min, average of two to three experiments; for substrate for UDP glucuronyl transferase: rat liver microsomes, in vitro. (In general: Microsomes from liver hold many membrane-bound enzymes, among them those of drug oxidation.)
The subject of another data set is MCF7 breast cancer cells. In words: Reversal of the inhibitory effect of tamoxifen on MCF 7 cell growth. In kind it is cell-based, human. To be noted: 1 μM tamoxifen, FIG. 4. The procedure:
Cells were grown as summarized in Example 4 and tamoxifen was added to flasks as a solution in DMSO […], as were increasing concentrations of TA or 4-HTA.

The test system of a further data set is MCF 7 cells. In words: Stimulation of MCF 7 cell proliferation in estrogen free medium. It is filed as cell-based, human. To be noted: nine days, FIG. 5. The procedure:
Cells were conditioned as described in Example 2, and then withdrawn from estrogen stimulation and incubated with phenol red free medium prepared with charcoal-stripped fetal calf serum. After five days, medium was changed and 4-HTA or estradiol were added as described in Example 2. After nine days, cell numbers were determined.
Each point is the average of 3-6 determinations. […] These findings indicate that 4-HTA is a pure estrogen with no residual estrogen antagonist activity.

A further data set has as its target T1, estrogen receptor (Rattus norvegicus, UniProt P06211).
T1 construct: Uteri from Sprague-Dawley rats (200-250g) are homogenized; from tissue; host or cells: rat uterus, 100000g supernatant (cytosol), Sprague-Dawley
T1 sequence (P06211 1-600): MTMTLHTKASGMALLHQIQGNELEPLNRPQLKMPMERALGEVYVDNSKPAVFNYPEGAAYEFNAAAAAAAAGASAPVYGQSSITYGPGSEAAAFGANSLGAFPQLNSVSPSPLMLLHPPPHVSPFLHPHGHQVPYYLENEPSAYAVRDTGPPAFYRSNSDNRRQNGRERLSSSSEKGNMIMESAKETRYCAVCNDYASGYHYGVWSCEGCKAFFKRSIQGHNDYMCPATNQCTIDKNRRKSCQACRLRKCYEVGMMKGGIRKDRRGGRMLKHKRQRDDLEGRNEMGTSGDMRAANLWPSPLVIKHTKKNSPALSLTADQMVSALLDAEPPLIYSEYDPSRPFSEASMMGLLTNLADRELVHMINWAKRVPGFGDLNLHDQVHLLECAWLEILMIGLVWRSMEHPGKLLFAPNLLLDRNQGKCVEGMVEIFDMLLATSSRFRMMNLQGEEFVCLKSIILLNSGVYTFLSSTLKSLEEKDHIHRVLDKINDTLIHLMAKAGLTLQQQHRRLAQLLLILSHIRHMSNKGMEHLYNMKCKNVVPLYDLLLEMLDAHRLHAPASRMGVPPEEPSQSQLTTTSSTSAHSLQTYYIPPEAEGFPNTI
In words: Estrogen receptor affinity: competition with [3H]estradiol binding in rat uterine cytosol. To be noted: for estrogen receptor affinity relative to estradiol (affinity=100): estradiol = 100. The procedure:
The estrogen receptor affinity of the triarylethylenes of Formula I can be measured according to the method of Ruenitz, et.al., J. Med. Chem., 25:1056, (1982).
[^3 H]Estradiol (58 Ci/mmol) can be obtained from Amersham Corp., and its radiochemical purity checked by TLC. Uteri from Sprague-Dawley rats (200-250g) are homogenized (1 uterus/2 mL) in ice-cold 10 mM Tris buffer, pH 7.4, that contains 1.5 mM EDTA and 3 mM sodium azide (TEA buffer). The homogenate is centrifuged at 100000g for 1 hour at 4° C. Incubation mixtures should contain 200-μμL aliquots of the supernatant, and 10 μL of a solution of 1.1×10^-7 M [^3 H]estradiol in dimethylacetamide, and 10 μL unlabeled competitor in dimethylacetamide. Ten concentrations of competitor are used ranging from 1×10^-9 to 5×10^-5 M. Control incubations should contain 10 μL of solvent alone. Nonspeoifio binding is determined in similarly prepared incubations that contain 1×10^-5 M estradiol. Incubations should be performed in triplicate, in 5-mL polypropylene centrifuge tubes, at 2°- 4° C. for 4 hours. Then a suspension of 400 μL of dextran-coated charcoal [0.1% dextran (Sigma no. D-1390), 1% acid-washed Norit A in TEA buffer]is added, and the incubation continues for 15 minutes at 2°-4° C. Tubes are then centrifuged at 1000g for 10 minutes, and 400-μL aliquots are dissolved in 5 mL of Scintivense (Fisher), Bound [^3 H]estradiol is determined by liquid scintillation spectrometry. Quench corrections are made by the external standard method.
The estrogen receptor affinity of 4-hydroxy tamoxifen acid was measured according to the assay described in Example 2. FIG. 2 is a graph of the effect of increasing concentrations (nM) of 4-HTA (--.quadrature.--), estradiol (--O--), and TA (-- --) on the binding of [^3 H]estradiol in uterine cytosol from immature rats. Specifically bound ^3 H from [^3 H]estradiol is plotted as a percentage of that bound in control incubations in the absence of 4-HTA, estradiol, or TA. Estradiol and tamoxifen, the non-hydroxylated analog of 4-HTA, were used as standards.

In data set [3] the test system is MCF 7 human breast cancer cells. In words: Effect on proliferation of MCF 7 cells grown in the presence of estrogens. To be noted: cell numbers after five days, FIG. 3.
Protocol: The antiestrogenic effect of the nonsteroidal triarylethylene compounds of Formula I is measured by comparing the growth of MCF7 breast cancer cells in the presence and absence of the compounds, according to the method described below for 4-hydroxy tamoxifen acid.
Cell numbers were determined five days later, after approximately four population doublings in drug free controls. Data shown are expressed as percentages of cell numbers in control flasks and are averages of six estimates from two separate experiments.
The nature of data set [4]: Distribution and elimination of TA and 4-HTA after intraperitoneal [14C]TAM in immature female rats. To be noted: for Percent of Dose Present as: Total 14C: i.p. [14C]TAM, rat, values ±5%. It is filed as in vivo, rat. On the procedure: Animals and Dosing. Female Sprague-Dawley rats, 45-55 grams each, were maintained on a normal laboratory diet and were divided into groups of four to six per experiment. […] This solution was prepared by dissolving the drug in 10 ml of 1% citric acid in N,N-dimethylacetamide and diluting the solution with 0.2 ml of 1.15% aqueous KCl just before use. Animals were housed in polycarbonate metabolism cages equipped for separate collection of urine and feces.
Processing of Biological Samples. At 24 and 48 hours after dosing, animals were killed by decapitation. Uteri and livers were removed and weights were recorded. Pooled uteri, and livers were homogenized in 10 volumes of methanol. Each homogenate was centrifuged at 400×g for 10 min. Triplicate 1.0 ml aliquots of supernatants were counted for radioactivity in 8 ml of Ecoscint (National Diagnostics, Somerville, N.J.). Collected urine was lyophilized. The residue was sonicated in methanol, and the mixture was filtered and the solid residue was washed with methanol to make the final volume equal to the original urine volume. This procedure removed endogenous polar materials with no loss of radioactivity. Feces collected 24 and 48 hr after dosing were homogenized in 10 volumes of methanol. The homogenate was centrifuged and analyzed for radioactivity as described above.
Extraction and Analysis. Unlabelled TA and 4-HTA […] were added as standards to methanol extracts of tissues, urine, and feces. A third standard, TA glyOH, was added only to the urine extract. Each solution was then concentrated under a stream of N2. To each residue was added 0.5 ml of 1% aqueous NaOH. The resulting mixture (pH≥11) was extracted serially two times with 1.0 ml portions of ether. Radioactivity present in these extracts was determined. To the aqueous phase was added 0.1 ml of 10% HCl, and the mixture (pH≤1) was extracted as before. Radioactivity was determined in some of these extracts. Otherwise, they were concentrated under a stream of N2. Each residue was dissolved in […] of acetone and the solution was applied to a TLC plate. Developed plates were segmented using the locations of reference compounds under UV light of 254 nm wavelength for guidance. Radioactivity was determined in segments containing reference compounds, and in some cases in all segments from TLC plates.
The specific activity of TA and 4-HTA eluted from developed chromatograms was determined by immersion of the segments containing these metabolites in a solution of 2.8% ammonia in methanol for 12 hr. Radioactivity in aliquots of eluates was determined, and quantities of TA and 4-HTA were estimated from absorbance of solutions at 283 nm using e283 =1.2×10^4 M^-1 cm-^-1 for each compound. Subsequent processing of eluates was conducted according to methods known in the art.

A short description of data set [5]: Rat liver microsomal glucuronidation. Conditions: rat, liver microsomes.

“Also recorded” adds a separate entry of the source.

Broadly, the Km is the concentration of substrate that gives half-maximal velocity. Take 4-hydroxytamoxifen [4-HT]: the Km in data set [1] was found to be 83 µM. Also, the Vmax in data set [2] came out at 7.4 nmols/mg-min.

In the case of `CCC(=C(c1ccc(O)cc1)c1ccc(OCC(=O)O)cc1)c1ccccc1` [4-HTA, (E,Z)-2-{4-[1-(p-hydroxyphenyl)-2-phenyl]-1-butenyl}phenoxyacetic acid], the “reversal of the growth inhibitory effect of TAM on MCF 7 cells” value in the data set on MCF7 breast cancer cells is reported as “both compounds reverse the growth inhibitory effect; also recorded: reversed in a dose dependent manner”. Moreover, the “maximal level of MCF 7 growth stimulation compared with estradiol” value in the data set on MCF 7 cells is on record as “stimulated growth to the same level as did estradiol”. Also, the “stimulation of MCF 7 cell growth” value in the data set with MCF 7 cells (submicromolar concentrations) is on record as “dose dependent stimulation of growth”. The “estrogen receptor affinity as percent of that of estradiol” value at estrogen receptor ([3H]estradiol, uterine cytosol from immature rats, FIG. 2) was 21%. Also, the “estrogen receptor affinity relative to estradiol (affinity=100)” value at estrogen receptor was found to be 21. In data set [3], the “inhibition of growth/proliferation of MCF 7 human breast cancer cells” value is “Neither tamoxifen acid nor 4-HTA inhibits the growth; also recorded: no effect on proliferation”. In addition, in data set [2], the Vmax turned out to be 0.0 nmols/mg-min and the “substrate for UDP glucuronyl transferase” value is “not a substrate”. In addition, in data set [4] (immature female rat), the “urinary elimination form” value is “eliminated unchanged in the urine”. Further, in data set [4] (immature female rat, after [14C]TAM), the “presence in uterine or ovarian tissue” value was “not detected in uterine or ovarian tissue”.

For the compound `CCC(=C(c1ccc(O)cc1)c1ccc(OCC(=O)OC)cc1)c1ccccc1` [Methyl 4-HTA], in data set [2], the Vmax is listed as 16.5 nmols/mg-min and the “substrate for UDP glucuronyl transferase” value is recorded as “excellent substrate”. Further, the Km at 0.5 h in data set [5] turned out to be 73 µM.

Turning to `CCC(=C(c1ccccc1)c1ccc(OCC(=O)O)cc1)c1ccccc1` [TA, (E,Z)-4-(1,2-diphenyl-1-butenyl)phenoxyacetic acid], the “reversal of the growth inhibitory effect of TAM on MCF 7 cells” value with MCF7 breast cancer cells is “to a lesser extent”; with MCF7 breast cancer cells (listed as tamoxifen acid), “both compounds reverse the growth inhibitory effect”. The “binding to the estrogen receptor” value at estrogen receptor (FIG. 2) is listed as “also binds to the estrogen receptor”. Also, on estrogen receptor, the “estrogen receptor affinity relative to estradiol (affinity=100)” value came out at 0.01. For the same compound, in data set [3], the “inhibition of growth/proliferation of MCF 7 human breast cancer cells” value is reported as “Neither tamoxifen acid nor 4-HTA inhibits the growth”. In addition, in data set [2], the Vmax worked out at 0.0 nmols/mg-min.

In the case of `CCC(=C(c1ccc(O)cc1)c1ccc(O)cc1)c1ccccc1` [TAM bis-phenol, 1,1-bis-(4-hydroxyphenyl)-2-phenyl-1-butene], the Vmax in data set [2] was 14.7 nmols/mg-min. In data set [5], the Km at 0.5 h came out at 54 µM.

As for `CC/C(=C(\c1ccccc1)c1ccc(OCCN(C)C)cc1)c1ccccc1` [TAM, (Z)-2-[4-(1,2-diphenyl-1-butenyl)phenoxy]-N,N-dimethylethanamine], in data set [3], the “inhibition of growth/proliferation of MCF 7 human breast cancer cells” value is on record as “potent inhibitor of cell growth”. Also, the “Percent of Dose Present as: Total 14C” value in data set [4] (feces, 0-24 hr after dosing) is given as 30.49%; in data set [4] (feces, 24-48 hr after dosing), 16.05%; in data set [4] (liver, 24 hr after dosing) it was 20.25%; in data set [4] (liver, 48 hr after dosing), 2.84%; in data set [4] (urine, 0-24 hr after dosing), 8.70%; in data set [4] (uterus, 24 hr after dosing), 0.12%.
